Assay results reported in PMC5218480 (PLoS ONE, 2017).

Test system: MV-4-11 cells
Assay: Gene expression microarray analysis (Affymetrix PrimeView) and GSEA
Type: cell-based, human
Design: RFU PODN (11730768_x_at) / Fold change /veh PODN (11730768_x_at) / RFU LINC00158 (11744669_a_at) / Fold change /veh LINC00158 (11744669_a_at) / RFU DUSP10 (11751237_a_at) / Fold change /veh DUSP10 (11751237_a_at) / RFU ID3 (11757404_x_at) / Fold change /veh ID3 (11757404_x_at) / RFU PLEKHG5 (11737974_s_at) / Fold change /veh PLEKHG5 (11737974_s_at) / RFU LRRC4B (11730491_at) / Fold change /veh LRRC4B (11730491_at) / RFU GIMAP4 (11747438_a_at) / Fold change /veh GIMAP4 (11747438_a_at) / RFU KRT8 (11758183_x_at) / Fold change /veh KRT8 (11758183_x_at) / RFU CNN1 (11734310_a_at) / Fold change /veh CNN1 (11734310_a_at) / RFU VPS37D (11726825_at) / Fold change /veh VPS37D (11726825_at) / RFU C10orf10 (11716522_x_at) / Fold change /veh C10orf10 (11716522_x_at) / RFU KIR2DL2 /// KIR2DL4 /// KIR2DL5A /// KIR2DL5B /// KIR2DS1 /// KIR2DS2 /// KIR2DS3 /// KIR2DS4 /// KIR3DL3 /// KIR3DL3 /// KIR3DS1 (11738374_at) / Fold change /veh KIR2DL2 /// KIR2DL4 /// KIR2DL5A /// KIR2DL5B /// KIR2DS1 /// KIR2DS2 /// KIR2DS3 /// KIR2DS4 /// KIR3DL3 /// KIR3DL3 /// KIR3DS1 (11738374_at) / RFU C1QL1 (11718748_at) / Fold change /veh C1QL1 (11718748_at) / RFU TMPRSS4 (11747572_a_at) / Fold change /veh TMPRSS4 (11747572_a_at) / RFU HAMP (11756126_x_at) / Fold change /veh HAMP (11756126_x_at) / RFU RNFT2 (11725882_a_at) / Fold change /veh RNFT2 (11725882_a_at) / RFU NR4A2 (11747474_a_at) / Fold change /veh NR4A2 (11747474_a_at) / RFU ABCC12 (11746883_a_at) / Fold change /veh ABCC12 (11746883_a_at) / RFU TMEM136 (11760407_x_at) / Fold change /veh TMEM136 (11760407_x_at) / RFU CLDN22 /// WWC2 (11732394_at) / Fold change /veh CLDN22 /// WWC2 (11732394_at) / RFU HLA-DPB1 (11760878_x_at) / Fold change /veh HLA-DPB1 (11760878_x_at) / RFU SPINT1 (11716480_a_at) / Fold change /veh SPINT1 (11716480_a_at) / RFU GAP43 (11754022_s_at) / Fold change /veh GAP43 (11754022_s_at) / RFU A4GNT (11735810_at) / Fold change /veh A4GNT (11735810_at) / RFU PRB3 (11715151_x_at) / Fold change /veh PRB3 (11715151_x_at) / RFU TUBB4B (11761932_at) / Fold change /veh TUBB4B (11761932_at) / RFU CAPN14 (11732068_a_at) / Fold change /veh CAPN14 (11732068_a_at) / RFU TMCC2 (11721928_a_at) / Fold change /veh TMCC2 (11721928_a_at) / RFU IRGQ (11745062_a_at) / Fold change /veh IRGQ (11745062_a_at) / RFU FAM174B (11720279_a_at) / Fold change /veh FAM174B (11720279_a_at) / RFU TMPRSS4 (11748680_a_at) / Fold change /veh TMPRSS4 (11748680_a_at) / RFU FAM212B (11763350_a_at) / Fold change /veh FAM212B (11763350_a_at) / RFU PLEKHG5 (11743358_a_at) / Fold change /veh PLEKHG5 (11743358_a_at) / RFU ZSCAN30 (11745921_a_at) / Fold change /veh ZSCAN30 (11745921_a_at) / RFU CMKLR1 (11741424_a_at) / Fold change /veh CMKLR1 (11741424_a_at) / RFU LOC101060620 /// MAPK8IP1 (11723275_at) / Fold change /veh LOC101060620 /// MAPK8IP1 (11723275_at) / RFU SPTSSB (11747773_x_at) / Fold change /veh SPTSSB (11747773_x_at) / RFU PRSS12 (11739890_at) / Fold change /veh PRSS12 (11739890_at) / RFU BIN1 (11741810_x_at) / Fold change /veh BIN1 (11741810_x_at) / RFU WNT11 (11732464_a_at) / Fold change /veh WNT11 (11732464_a_at) / RFU C10orf10 (11716521_a_at) / Fold change /veh C10orf10 (11716521_a_at) / RFU C5orf56 (11738089_at) / Fold change /veh C5orf56 (11738089_at) / RFU CYB561 (11721691_x_at) / Fold change /veh CYB561 (11721691_x_at) / RFU ANKRD19P (11752326_a_at) / Fold change /veh ANKRD19P (11752326_a_at) / RFU OR2T12 /// OR2T33 /// OR2T8 (11738714_s_at) / Fold change /veh OR2T12 /// OR2T33 /// OR2T8 (11738714_s_at) / RFU VCAN (11748164_a_at) / Fold change /veh VCAN (11748164_a_at) / RFU JSRP1 (11732532_at) / Fold change /veh JSRP1 (11732532_at) / RFU KRTAP10-11 (11738290_x_at) / Fold change /veh KRTAP10-11 (11738290_x_at) / RFU MYO3A (11730013_a_at) / Fold change /veh MYO3A (11730013_a_at) / RFU EBF3 (11725865_a_at) / Fold change /veh EBF3 (11725865_a_at) / RFU CAMK2N1 (11719241_x_at) / Fold change /veh CAMK2N1 (11719241_x_at) / RFU C5orf56 (11738088_a_at) / Fold change /veh C5orf56 (11738088_a_at) / RFU OLFML3 (11715873_a_at) / Fold change /veh OLFML3 (11715873_a_at) / RFU LOC100653217 /// NTM (11731650_a_at) / Fold change /veh LOC100653217 /// NTM (11731650_a_at) / RFU MAPK11 (11762145_a_at) / Fold change /veh MAPK11 (11762145_a_at) / RFU FIZ1 (11724087_x_at) / Fold change /veh FIZ1 (11724087_x_at) / RFU OASL (11726364_x_at) / Fold change /veh OASL (11726364_x_at) / RFU SOX15 (11748057_x_at) / Fold change /veh SOX15 (11748057_x_at) / RFU CD79A (11719716_a_at) / Fold change /veh CD79A (11719716_a_at) / RFU HIST1H1D (11736915_at) / Fold change /veh HIST1H1D (11736915_at) / RFU CASKIN2 (11723855_a_at) / Fold change /veh CASKIN2 (11723855_a_at) / RFU LOC730098 (11760151_x_at) / Fold change /veh LOC730098 (11760151_x_at) / RFU OR4N2 (11742367_at) / Fold change /veh OR4N2 (11742367_at) / RFU PRRT2 (11749266_a_at) / Fold change /veh PRRT2 (11749266_a_at) / RFU SNX32 (11753110_a_at) / Fold change /veh SNX32 (11753110_a_at) / RFU CDHR5 (11726645_a_at) / Fold change /veh CDHR5 (11726645_a_at) / RFU RCAN1 (11760418_a_at) / Fold change /veh RCAN1 (11760418_a_at) / RFU FAM167A (11723789_a_at) / Fold change /veh FAM167A (11723789_a_at) / RFU FAM26E (11764081_at) / Fold change /veh FAM26E (11764081_at) / RFU ISYNA1 (11749810_s_at) / Fold change /veh ISYNA1 (11749810_s_at) / RFU ACY1 (11761880_at) / Fold change /veh ACY1 (11761880_at) / RFU 11764098_at / Fold change /veh 11764098_at / RFU SAMD14 (11745864_x_at) / Fold change /veh SAMD14 (11745864_x_at) / RFU NPB (11741838_a_at) / Fold change /veh NPB (11741838_a_at) / RFU TMPRSS6 (11731388_a_at) / Fold change /veh TMPRSS6 (11731388_a_at) / RFU KRTAP10-2 (11738614_at) / Fold change /veh KRTAP10-2 (11738614_at) / RFU ARHGAP8 /// PRR5-ARHGAP8 (11727945_x_at) / Fold change /veh ARHGAP8 /// PRR5-ARHGAP8 (11727945_x_at) / RFU KRTAP5-7 /// NADSYN1 (11734609_at) / Fold change /veh KRTAP5-7 /// NADSYN1 (11734609_at) / RFU RASL12 (11751679_a_at) / Fold change /veh RASL12 (11751679_a_at) / RFU CDKN2B (11736163_a_at) / Fold change /veh CDKN2B (11736163_a_at) / RFU PRF1 (11729649_at) / Fold change /veh PRF1 (11729649_at) / RFU, ZNF638 /// ZNF638-IT1 / Fold change vs veh, ZNF638 /// ZNF638-IT1 / RFU, PANK3 / Fold change vs veh, PANK3 / RFU, SH3YL1 / Fold change vs veh, SH3YL1 / RFU, ZEB2 / Fold change vs veh, ZEB2 / RFU, NRIP1 / Fold change vs veh, NRIP1 / RFU, PTTG1IP / Fold change vs veh, PTTG1IP / RFU, CAPN2 / Fold change vs veh, CAPN2 / RFU, MED14 / Fold change vs veh, MED14 / RFU, SNORA58 / Fold change vs veh, SNORA58 / RFU, C1orf63 / Fold change vs veh, C1orf63 / RFU, LRRFIP1 / Fold change vs veh, LRRFIP1 / RFU, NDUFAF7 / Fold change vs veh, NDUFAF7 / RFU, SLC12A2 / Fold change vs veh, SLC12A2 / RFU, IBTK / Fold change vs veh, IBTK / RFU, ESF1 / Fold change vs veh, ESF1 / Fold change vs veh, TMEM50B / RFU, TAOK1 / Fold change vs veh, TAOK1 / RFU, ACBD3 / Fold change vs veh, ACBD3 / RFU, TMA16 / Fold change vs veh, TMA16 / RFU, RWDD3 / Fold change vs veh, RWDD3 / RFU, BCAT1 / Fold change vs veh, BCAT1 / RFU, EDEM3 / Fold change vs veh, EDEM3 / RFU, TMEM33 / Fold change vs veh, TMEM33 / RFU, WDR75 / Fold change vs veh, WDR75 / RFU, AHCTF1 / Fold change vs veh, AHCTF1 / RFU, TFRC / Fold change vs veh, TFRC / RFU, ZDHHC17 / Fold change vs veh, ZDHHC17 / RFU, NOM1 / Fold change vs veh, NOM1 / RFU, ARL8B / Fold change vs veh, ARL8B / RFU, ZBTB11 / Fold change vs veh, ZBTB11 / RFU, TAMM41 / Fold change vs veh, TAMM41 / RFU, KIAA1704 /// LOC100996395 / Fold change vs veh, KIAA1704 /// LOC100996395 / RFU, ING1 / Fold change vs veh, ING1 / RFU, TRMT61B / Fold change vs veh, TRMT61B / RFU, FUBP3 / Fold change vs veh, FUBP3 / RFU, TP53 / Fold change vs veh, TP53 / RFU, TNKS2 / Fold change vs veh, TNKS2 / RFU, ZFP14 / Fold change vs veh, ZFP14 / RFU, ACTR2 / Fold change vs veh, ACTR2 / RFU, PPP3R1 / Fold change vs veh, PPP3R1 / RFU, PIK3R1 / Fold change vs veh, PIK3R1 / RFU, HNRNPA1 / Fold change vs veh, HNRNPA1 / RFU, RNF170 / Fold change vs veh, RNF170 / RFU, ZNF28 / Fold change vs veh, ZNF28 / RFU, RNGTT / Fold change vs veh, RNGTT / RFU, OGT / Fold change vs veh, OGT / RFU, BRD1 / Fold change vs veh, BRD1 / RFU, MARS / Fold change vs veh, MARS / RFU, ZNF655 / Fold change vs veh, ZNF655 / RFU, FAHD1 / Fold change vs veh, FAHD1 / RFU, BDP1 / Fold change vs veh, BDP1 / RFU, LRRCC1 / Fold change vs veh, LRRCC1 / RFU, ARID1A / Fold change vs veh, ARID1A / RFU, ZNF146 / Fold change vs veh, ZNF146 / RFU, ZNF330 / Fold change vs veh, ZNF330 / RFU, GPN3 / Fold change vs veh, GPN3 / RFU, C9orf123 / Fold change vs veh, C9orf123 / RFU, N4BP2L2 / Fold change vs veh, N4BP2L2 / RFU, ARFIP1 / Fold change vs veh, ARFIP1 / RFU, FAM179B / Fold change vs veh, FAM179B / RFU, BCL10 / Fold change vs veh, BCL10 / RFU, UHRF1BP1L / Fold change vs veh, UHRF1BP1L / RFU, BET1 / Fold change vs veh, BET1 / RFU, CNOT2 / Fold change vs veh, CNOT2 / RFU, ZNF268 / Fold change vs veh, ZNF268 / Fold change vs veh, ZNF507 / RFU, DGCR2 / Fold change vs veh, DGCR2 / RFU, WDSUB1 / Fold change vs veh, WDSUB1 / Fold change vs veh, HSP90B1 /// MIR3652 / RFU, ADSS / Fold change vs veh, ADSS / RFU, GK / Fold change vs veh, GK / RFU, ZNF148 / Fold change vs veh, ZNF148 / RFU, TAF9 / Fold change vs veh, TAF9 / RFU, SLC1A5 / Fold change vs veh, SLC1A5 / RFU, SLMO2 / Fold change vs veh, SLMO2 / RFU, ABCC4 / Fold change vs veh, ABCC4 / RFU, LOC101060439 /// RAP1B / Fold change vs veh, LOC101060439 /// RAP1B / RFU, RFX7 / Fold change vs veh, RFX7 / RFU, GTPBP10 / Fold change vs veh, GTPBP10 / RFU, CNEP1R1 / Fold change vs veh, CNEP1R1 / RFU, BIVM-ERCC5 /// ERCC5 / Fold change vs veh, BIVM-ERCC5 /// ERCC5 / RFU, ILF3 / Fold change vs veh, ILF3 / RFU 11762660_at / Fold change /veh 11762660_at / RFU VCAN (11757783_s_at) / Fold change /veh VCAN (11757783_s_at) / RFU DDX43 (11728927_at) / Fold change /veh DDX43 (11728927_at) / RFU KRT8 (11758188_x_at) / Fold change /veh KRT8 (11758188_x_at) / RFU NKD1 (11759106_at) / Fold change /veh NKD1 (11759106_at) / RFU SRD5A1 (11742802_a_at) / Fold change /veh SRD5A1 (11742802_a_at) / RFU TPSAB1 /// TPSB2 (11721975_s_at) / Fold change /veh TPSAB1 /// TPSB2 (11721975_s_at) / RFU GSTM3 (11746129_a_at) / Fold change /veh GSTM3 (11746129_a_at) / RFU IL23R (11737362_x_at) / Fold change /veh IL23R (11737362_x_at) / RFU TMEM51 (11727254_a_at) / Fold change /veh TMEM51 (11727254_a_at) / RFU PIWIL2 (11732686_x_at) / Fold change /veh PIWIL2 (11732686_x_at) / RFU ORM1 (11744905_x_at) / Fold change /veh ORM1 (11744905_x_at) / RFU CCDC152 (11743942_at) / Fold change /veh CCDC152 (11743942_at) / RFU ECM1 (11717891_a_at) / Fold change /veh ECM1 (11717891_a_at) / RFU IL23R (11748794_a_at) / Fold change /veh IL23R (11748794_a_at) / RFU TNFAIP8L3 (11732012_x_at) / Fold change /veh TNFAIP8L3 (11732012_x_at) / RFU MBOAT4 (11741988_at) / Fold change /veh MBOAT4 (11741988_at) / RFU 11764193_at / Fold change /veh 11764193_at / RFU TMEM53 (11763286_at) / Fold change /veh TMEM53 (11763286_at) / RFU MAGEB2 (11727129_at) / Fold change /veh MAGEB2 (11727129_at) / RFU TMEM200A (11744735_a_at) / Fold change /veh TMEM200A (11744735_a_at) / RFU CCDC152 (11751479_a_at) / Fold change /veh CCDC152 (11751479_a_at) / RFU FAM211A (11726209_a_at) / Fold change /veh FAM211A (11726209_a_at) / RFU RGS16 (11746705_a_at) / Fold change /veh RGS16 (11746705_a_at) / RFU VCAN (11755009_s_at) / Fold change /veh VCAN (11755009_s_at) / RFU RHOB (11743442_s_at) / Fold change /veh RHOB (11743442_s_at) / RFU RGS16 (11720943_a_at) / Fold change /veh RGS16 (11720943_a_at) / RFU RGS16 (11720944_at) / Fold change /veh RGS16 (11720944_at) / RFU, VPS4B / Fold change vs veh, VPS4B / RFU, CREB1 / Fold change vs veh, CREB1 / RFU, DNAJC13 / Fold change vs veh, DNAJC13 / RFU, GNAQ / Fold change vs veh, GNAQ / RFU, CDK5R1 / Fold change vs veh, CDK5R1 / RFU, ZRANB3 / Fold change vs veh, ZRANB3 / RFU, CUL4A / Fold change vs veh, CUL4A / RFU, CCNY / Fold change vs veh, CCNY / RFU, UFL1 / Fold change vs veh, UFL1 / RFU, COG3 / Fold change vs veh, COG3 / RFU, DIAPH2 / Fold change vs veh, DIAPH2 / RFU, SKA2 / Fold change vs veh, SKA2 / RFU, AFF3 / Fold change vs veh, AFF3 / RFU, LMF1 / Fold change vs veh, LMF1 / RFU, IPO11 / Fold change vs veh, IPO11 / RFU, DFFB / Fold change vs veh, DFFB / RFU, FOXP1 / Fold change vs veh, FOXP1 / RFU, CARD8 / Fold change vs veh, CARD8 / RFU, STRN3 / Fold change vs veh, STRN3 / RFU, ADK / Fold change vs veh, ADK / RFU, RASSF2 / Fold change vs veh, RASSF2 / RFU, WIPF1 / Fold change vs veh, WIPF1 / RFU, LARP1B / Fold change vs veh, LARP1B / RFU, RASA1 / Fold change vs veh, RASA1 / RFU, RB1 / Fold change vs veh, RB1 / RFU, PPFIA1 / Fold change vs veh, PPFIA1 / RFU, MAT2A / Fold change vs veh, MAT2A / RFU, CCT5 / Fold change vs veh, CCT5 / RFU, WDR92 / Fold change vs veh, WDR92 / RFU, CUX1 / Fold change vs veh, CUX1 / RFU, TTC7A / Fold change vs veh, TTC7A / RFU, TMEM135 / Fold change vs veh, TMEM135 / RFU, DEPTOR / Fold change vs veh, DEPTOR / RFU, CPM / Fold change vs veh, CPM / RFU, DNAJB6 / Fold change vs veh, DNAJB6 / RFU, CACNA2D3 / Fold change vs veh, CACNA2D3 / RFU, DTX4 / Fold change vs veh, DTX4 / RFU, TFCP2 / Fold change vs veh, TFCP2 / RFU, GMCL1 /// GMCL1P1 / Fold change vs veh, GMCL1 /// GMCL1P1 / RFU, AEBP2 / Fold change vs veh, AEBP2 / RFU, SNHG1 /// SNORD22 /// SNORD25 /// SNORD26 /// SNORD27 /// SNORD28 /// SNORD29 /// SNORD31 / Fold change vs veh, SNHG1 /// SNORD22 /// SNORD25 /// SNORD26 /// SNORD27 /// SNORD28 /// SNORD29 /// SNORD31 / Fold change (Aza/veh), C12orf56 (ProbeSet 11735607_a_at) / Fold change (ACY-1035/veh), C12orf56 (ProbeSet 11735607_a_at) / Fold change (Aza/veh), FGFR1OP (ProbeSet 11751329_s_at) / Fold change (ACY-1035/veh), FGFR1OP (ProbeSet 11751329_s_at) / Fold change (Aza/veh), VPS36 (ProbeSet 11739960_a_at) / Fold change (ACY-1035/veh), VPS36 (ProbeSet 11739960_a_at) / RFU SYPL1 (11715823_x_at) / Fold change /veh SYPL1 (11715823_x_at) / RFU IGFBP7 (11715501_s_at) / Fold change /veh IGFBP7 (11715501_s_at) / RFU REEP3 (11722064_at) / Fold change /veh REEP3 (11722064_at) / RFU IGLL1 (11728026_x_at) / Fold change /veh IGLL1 (11728026_x_at): dose or concentration left out as unconfirmed
Conditions: MV-4-11 cells, 48 hours

Nc1ncn([C@@H]2O[C@H](CO)[C@@H](O)[C@H]2O)c(=O)n1 [azacitidine]
Fold change /veh ABCC12 (11746883_a_at): 0.93
